Assays:
Hop62 = assay: SRB in vitro cytotoxicity assay, Hop62 lung cancer cells; format: cell-based; details: Homo sapiens, HOP-62, 48 h drug exposure, read-out: In vitro anticancer activity GI50, Lung Hop62
From the text: (§1) Compounds 4a-4z and 4aa-4ae have been evaluated for their in vitro cytotoxicity in selected human cancer cell lines i.e., colon (Colo205), lung (Hop-62, A549), cervix (SiHa), prostate (PC3), oral (KB, DWD, Gurav), Ovarian (A-2780) and breast (MCF7, Zr-75-1) origin by employing the sulforhodamine B (SRB) assay method (Skehn, P.; Storeng, R.; Scudiero, A.; Monks, J.; MeMohan, D.; Vistica, D.; Jonathan, T. W.; Bokesch, H.; Kenney, S.; Boyd M. R. J. Natl. Cancer Inst. 1990, 82, 1107).
(§2) The synthesized compounds have been evaluated for their in vitro cytotoxicity in human cancer cell lines. A protocol of 48 h continuous drug exposure has been used and a sulforhodamine B (SRB) protein assay has been used to estimate cell viability or growth. The cell lines were grown in DMEM medium containing 10% fetal bovine serum and 2 mM L-glutamine and were inoculated into 96 well microtiter plates in […] at plating densities depending on the doubling time of individual cell lines. The microliter plates were incubated at 37_C, 5% CO2, 95% air, and 100% relative humidity for 24 h prior to addition of experimental drugs. Aliquots of […] of the drug dilutions were added to the appropriate microliter wells already containing […] of cells, suiting in the required final drug concentrations. For each compound four concentrations (0.1, 1, 10 and 100 uM) were evaluated and each was done in triplicate wells. Plates were incubated further for 48 h and assay was terminated by the addition of […] of cold trichloro acetic acid (TCA) (final concentration, 10% TCA) and incubated for 60 min at 4_C. The plates were washed five times with tap water and airdried. Sulforhodamine B (SRB) solution ([…]) at 0.4% (w/v) in 1% acetic acid was added to each of the cells, and plates were incubated for 20 min at room temperature. The residual dye was removed by washing five times with 1% acetic acid. The plates were airdried. Bound stain was subsequently eluted with 10 mM trizma base, and the absorbance was read on an ELISA plate reader at a wavelength of 540 nm with 690 nm reference wavelengths. Percent growth was calculated on a plate by plate basis for test wells relative to control wells. The above determinations were repeated three times. Percentage growth was expressed as the (ratio of average absorbance of the test well to the average absorbance of the control wells)*100. Growth inhibition of 50% (GI50) was calculated from [(Ti−Tz)/(C−Tz)]*100 ¼ 50, which is the drug concentration resulting in a 50% reduction in the net protein increase (as measured by SRB staining) in control cells during the drug incubation. Where, Tz ¼ Optical density at time zero, OD of control ¼ C, and OD of test growth in the presence of drug ¼ Ti.

KB = assay: SRB in vitro cytotoxicity assay, KB oral cancer cells; format: cell-based; details: Homo sapiens, 48 h drug exposure, read-out: In vitro anticancer activity GI50, Oral KB
From the text: as §1, §2

MCF7 = assay: SRB in vitro cytotoxicity assay, MCF7 breast cancer cells; format: cell-based; details: Homo sapiens, 48 h drug exposure, read-out: In vitro anticancer activity GI50, Breast MCF7
From the text: as §1, §2

A-549 = assay: SRB in vitro cytotoxicity assay, A-549 lung cancer cells; format: cell-based; details: Homo sapiens, A549, 48 h drug exposure, read-out: In vitro anticancer activity GI50, Lung A-549
From the text: as §1, §2

DWD = assay: SRB in vitro cytotoxicity assay, DWD oral cancer cells; format: cell-based; details: Homo sapiens, 48 h drug exposure, read-out: In vitro anticancer activity GI50, Oral DWD
From the text: as §1, §2

Zr-75-1 = assay: SRB in vitro cytotoxicity assay, Zr-75-1 breast cancer cells; format: cell-based; details: Homo sapiens, 48 h drug exposure, read-out: In vitro anticancer activity GI50, Breast Zr-75-1
From the text: as §1, §2

Colo 205 = assay: SRB in vitro cytotoxicity assay, Colo 205 colon cancer cells; format: cell-based; details: Homo sapiens, 48 h drug exposure, read-out: In vitro anticancer activity GI50, Colon Colo 205
From the text: as §1, §2

A-2780 = assay: SRB in vitro cytotoxicity assay, A-2780 ovarian cancer cells; format: cell-based; details: Homo sapiens, A2780, 48 h drug exposure, read-out: In vitro anticancer activity GI50, Ovarian A-2780
From the text: as §1, §2

Gurav = assay: SRB in vitro cytotoxicity assay, Gurav oral cancer cells; format: cell-based; details: Homo sapiens, 48 h drug exposure, read-out: In vitro anticancer activity GI50, Oral Gurav
From the text: as §1, §2

Structure (SMILES) | melting point | GI50 (Hop62) | GI50 (KB) | GI50 (MCF7) | GI50 (A-549) | GI50 (DWD) | GI50 (Zr-75-1) | GI50 (Colo 205) | GI50 (A-2780) | GI50 (Gurav)
COc1ccc(-c2noc3c2C(c2cc(OC)c(OC)c(OC)c2)C2=C(COC2=O)N3)cc1 (stereo not drawn) [Compound 4aa, 3-(4-methoxyphenyl)-4-(3,4,5-trimethoxyphenyl)-4,5,7,8 tetrahydrofuro[3′,4′:5,6]pyrido[3,2-d]isoxazol-5-one] | 218 to 219 °C | 2500 nM | – | – | – | – | – | – | – | –
COc1ccc(C2C3=C(COC3=O)Nc3onc(-c4ccc(Cl)cc4)c32)cc1O (stereo not drawn) [Compound 4ad, 3-(4-chlorophenyl)-4-(3-hydroxy-4-methoxyphenyl)-4,5,7,8-tetrahydrofuro[3′,4′:5,6]pyrido[3,2-d]isoxazol-5-one] | 245 to 246 °C | – | 2700 nM | – | – | – | – | – | – | –
COc1cc(C2C3=C(COC3=O)Nc3c2cc(OC)c(OC)c3OC)ccc1O (stereo not drawn) [Compound 4ae, 9-(4-hydroxy-3-methoxyphenyl)-5,6,7-trimethoxy-1,3,4,9-tetrahydrofuro[3,4-b]quinolin-1-one] | 290 to 291 °C | – | – | 2900 nM | – | – | – | – | – | –
COc1nc2c(c(OC)n1)C(c1ccc(O)c(OC)c1)C1=C(COC1=O)N2 (stereo not drawn) [Compound 4b, 5-(4-hydroxy-3-methoxyphenyl)-2,4-dimethoxy-5,6,8,9-tetrahydrofuro[3′,4′:5,6]pyrido[2,3-d]pyrimidin-6-one] | 294 to 296 °C | 2700 nM | – | – | – | – | – | – | – | –
COc1nc2c(c(OC)n1)C(c1ccc(OC)c(O)c1)C1=C(COC1=O)N2 (stereo not drawn) [Compound 4c, 5-(3-hydroxy-4-methoxyphenyl)-2,4-dimethoxy-5,6,8,9-tetrahydrofuro[3′,4′:5,6]pyrido[2,3-d]pyrimidin-6-one] | 284 to 285 °C | 2800 nM | – | – | – | – | – | – | – | –
COc1nc2c(c(OC)n1)C(c1ccc(F)c(OC)c1)C1=C(COC1=O)N2 (stereo not drawn) [Compound 4d, 5-(4-fluoro-3-methoxyphenyl)-2,4-dimethoxy-5,6,8,9-tetrahydrofuro[3′,4′:5,6]pyrido[2,3-d]pyrimidin-6-one] | 267 to 270 °C | – | 2200 nM | – | 2600 nM | – | – | – | – | –
COc1cc(C2C3=C(COC3=O)Nc3ccc4cc[nH]c4c32)cc(OC)c1OC (stereo not drawn) [Compound 4e, 10-(3,4,5-trimethoxyphenyl)-6,7,9,10-tetrahydro-1H-furo[3,4-b]pyrrolo[2,3-f]quinolin-9-one] | 299 to 301 °C | – | 2000 nM | – | 2400 nM | 2800 nM | 2800 nM | 2300 nM | 2700 nM | –
COc1cc(C2C3=C(COC3=O)Nc3ccc4cc[nH]c4c32)ccc1O (stereo not drawn) [Compound 4f, 10-(4-hydroxy-3-methoxyphenyl)-6,7,9,10-tetrahydro-1H-furo[3,4-b]pyrrolo[2,3-f]quinolin-9-one] | 301 to 303 °C | – | – | 2300 nM | – | 2400 nM | 2000 nM | 2500 nM | – | 2600 nM
COc1ccc(C2C3=C(COC3=O)Nc3ccc4cc[nH]c4c32)cc1[N+](=O)[O-] (stereo not drawn) [Compound 4i, 10-(4-methoxy-3-nitrophenyl)-6,7,9,10-tetrahydro-1H-furo[3,4-b]pyrrolo[2,3-f]quinolin-9-one] | – | – | – | – | – | – | – | 2400 nM | – | –
COc1cc(C2C3=C(COC3=O)Nc3ccc4ncsc4c32)cc(OC)c1OC (stereo not drawn) [Compound 4s, 10-(3,4,5-trimethoxyphenyl)-6,7,9,10-tetrahydrofuro[3,4-b][1,3]thiazolo[5,4-f]quinolin-9-one] | 309 to 310 °C | – | 2100 nM | – | 2400 nM | 2500 nM | 2100 nM | 2500 nM | 2300 nM | –
COc1cc(C2C3=C(COC3=O)Nc3ccc4nc(C)sc4c32)ccc1[N+](=O)[O-] (stereo not drawn) [Compound 4w, 10-(3-methoxy-4-nitrophenyl)-2-methyl-6,7,9,10-tetrahydrofuro[3,4-b][1,3]thiazolo[5,4-f]quinolin-9-one] | 190 to 191 °C | – | – | 150 nM | – | – | – | – | – | –
COc1ccc(C2C3=C(COC3=O)Nc3ccc4nc(S)[nH]c4c32)cc1O (stereo not drawn) [Compound 4x, 10-(3-hydroxy-4-methoxyphenyl)-2-sulfanyl-6,7,9,10-tetrahydro-1H-furo[3,4-b]imidazo[4,5-f]quinolin-9-one] | 334 to 337 °C | – | – | 2700 nM | – | – | – | – | – | –
COc1cc(C2C3=C(COC3=O)Nc3ccc4nn[nH]c4c32)cc(OC)c1OC (stereo not drawn) [Compound 4y, 10-(3,4,5-trimethoxyphenyl)-6,7,9,10-tetrahydro-1H-furo[3,4-b][1,2,3]triazolo[4,5-f]quinolin-9-one] | 324 to 325 °C | – | 2900 nM | – | – | – | – | – | – | –

Further lines, with some results ahead:

melting point | Structure (SMILES) | GI50 (Hop62) | GI50 (KB) | GI50 (MCF7) | GI50 (A-549) | GI50 (DWD) | GI50 (Zr-75-1) | GI50 (Colo 205) | GI50 (A-2780) | GI50 (Gurav)
297 to 299 °C | COc1ccc(C2C3=C(COC3=O)Nc3ccc4cc[nH]c4c32)cc1O (stereo not drawn) [Compound 4g, 10-(3-hydroxy-4-methoxyphenyl)-6,7,9,10-tetrahydro-1H-furo[3,4-b]pyrrolo[2,3-f]quinolin-9-one] | 2200 nM | 2200 nM | 2900 nM | 2300 nM | – | 2800 nM | 190 nM | 2700 nM | 2300 nM
170 to 172 °C | COc1cc(C2C3=C(COC3=O)Nc3ccc4cc[nH]c4c32)ccc1F (stereo not drawn) [Compound 4h, 10-(4-fluoro-3-methoxyphenyl)-6,7,9,10-tetrahydro-1H-furo[3,4-b]pyrrolo[2,3-f]quinolin-9-one] | 2600 nM | 170 nM | 2100 nM | 2200 nM | 2600 nM | 2500 nM | – | 2300 nM | 2500 nM
198 to 199 °C | COc1cc(C2C3=C(COC3=O)Nc3ccc4cc(C)[nH]c4c32)ccc1F (stereo not drawn) [Compound 4l, 10-(4-fluoro-3-methoxyphenyl)-2-methyl-6,7,9,10-tetrahydro-1H-furo[3,4-b]pyrrolo[2,3-f]quinolin-9-one] | 2400 nM | – | 2600 nM | – | 2100 nM | – | – | 2400 nM | 2500 nM
205 to 207 °C | COc1ccc(C2C3=C(COC3=O)Nc3ccc4cc(C)[nH]c4c32)c(F)c1 (stereo not drawn) [Compound 4m, 10-(2-fluoro-4-methoxyphenyl)-2-methyl-6,7,9,10-tetrahydro-1H-furo[3,4-b]pyrrolo[2,3-f]quinolin-9-one] | – | – | < 100 nM | – | – | – | – | – | –
243 to 245 °C | COc1ccc(C2C3=C(COC3=O)Nc3ccc4cn[nH]c4c32)cc1O (stereo not drawn) [Compound 4p, 10-(3-hydroxy-4-methoxyphenyl)-6,7,9,10-tetrahydro-1H-furo[3,4-b]pyrazolo[3,4-f]quinolin-9-one] | 2600 nM | – | – | – | – | – | 2600 nM | – | –
307 to 309 °C | COc1cc(C2C3=C(COC3=O)Nc3ccc4cn[nH]c4c32)ccc1F (stereo not drawn) [Compound 4q, 10-(4-fluoro-3-methoxyphenyl)-6,7,9,10-tetrahydro-1H-furo[3,4-b]pyrazolo[3,4-f]quinolin-9-one] | – | – | 2700 nM | 2300 nM | – | – | – | – | 2600 nM
308 to 310 °C | COc1ccc(C2C3=C(COC3=O)Nc3ccc4nn[nH]c4c32)c(F)c1 (stereo not drawn) [Compound 4z, 10-(2-fluoro-4-methoxyphenyl)-6,7,9,10-tetrahydro-1H-furo[3,4-b][1,2,3]triazolo[4,5-f]quinolin-9-one] | – | – | < 100 nM | – | – | – | – | – | –
